Experimental data as given in publication PMC11286589, “Population pharmacokinetics and exposure–response analyses of SAF-189s in Chinese patients with ALK+/ROS1+ non-small cell lung cancer” (Frontiers in Pharmacology, 2024).
Values joined by “and” are separate entries in the source; they are usually repeats but may differ in a detail not shown here. Equal entries are not always repeated. Where two headings read alike, the source gives them in different places.

Legend:
[1] = Population pharmacokinetic (PopPK) model of SAF-189s plasma concentrations (NONMEM); assay type: in vivo, human
Experimental: The population PK analysis included data from one phase I study of SAF-189s conducted with healthy subjects (study STL31147; n = 24) and one phase I/II study conducted with Chinese patients having ALK+/ROS1+ advanced NSCLC (study SAF001; n = 299). STL31147 was a single-center, randomized, open-label, two-period (fed and fasting), and two-sequence crossover study on healthy Chinese adults. The volunteers received SAF-189s at a dose of 160 mg orally once in each period, with a washout period of 14 days. Blood samples (3 mL) were collected after each SAF-189s administration at 0 (predose), 1, 2, 3, 4, 6, 8, 10, 12, 24, 48, 72, 120, and 168 h post dosing. SAF001 was a multicenter, open-label, and single-arm phase I/II study to evaluate the safety, tolerability, pharmacokinetics, and antitumor activity of SAF-189s in patients with advanced ALK+ NSCLC (phase I) and ALK+/ROS1+ NSCLC (phase II). In the dose escalation portion, the study treatment included a single-agent 3-day PK run-in period and a continuous treatment period. The dosing regimens were 20, 40, 80, 120, 160, and 210 mg QD for 21 days in 21-day cycles during the continuous treatment period. In phase II, the patients received 80, 120, 160, and 210 mg of SAF-189s (phase IIa) or 160 mg (phase IIb) QD over 21-day cycles.
All studies were conducted in accordance with the Good Clinical Practice guidelines and Declaration of Helsinki. The protocols were approved by the independent ethics committee of each investigation site, and all subjects provided informed consent. The tumor responses were assessed by the IRC based on the Response Evaluation Criteria in Solid Tumors (RECIST) 1.1 conditions. The exposure–efficacy analyses of SAF-189s were conducted based on data from patients in the SAF001 study to explore the relationships between systemic exposure and efficacy endpoints, including the ORR, PFS, and duration of response (DOR). The exposure–safety analyses of SAF-189s were conducted based on data from patients in the SAF001 study to explore the relationships between the systemic exposure and safety endpoints, including the adverse events (AEs) of interest. In these studies, the SAF-189s plasma concentrations were analyzed using validated liquid chromatography tandem mass spectrometry within the assay range of 0.5–150 ng mL^–1.
Dataset preparation and exploratory graphical analyses were performed using R (version 4.2.0) and SAS® (version 9.4, Institute Inc., Cary, NC, United States). The PK data of SAF-189s were pooled and analyzed using a non-linear mixed-effects model. The PopPK analysis was conducted using NONMEM® software (version 7.3, ICON, Hanover, MD, United States) with first-order conditional estimations with interactions (FOCE-I). Following graphical exploratory analysis, one- and two-compartment models were evaluated; several absorption models were then tested, including first-order, zero-order, sequential zero- and first-order, and parallel first-order models with and without a lag absorption time; based on the characteristics of the elimination phase of the concentration–time profiles of SAF-189s, the linear, non-linear, and time-dependent elimination models ([Lau et al., 2019]; [Kratochwil et al., 2021]) were investigated. Interindividual variance (IIV) was then described as a log-normal distribution, and the covariance between the IIV parameters was assessed. Residual variability was assessed by comparing the proportional, additive, and combined error models. Owing to the low proportion (<1%) of post-administration samples with concentrations below the quantification limit (BQL) of the assay, the BQL data were excluded from the PopPK model development. Model selection was based on the objective function value (OFV), goodness-of-fit (GOF) plot, and robustness of parameter estimates. The ETA shrinkage was also taken into consideration when evaluating the models.
The covariates were prespecified based on their physiological and clinical relevance. […]

[2] = set-up: method as in Qin et al., 2023; details: ref Qin et al., 2023, cited from earlier work
[3] = 5th percentile age (25 years) vs median age (53 years)
[4] = 95th percentile age (71 years) vs median age (53 years)
[5] = ALKPOT 2 or 3 or 4 vs reference 1
[6] = ALKPOT 6 (healthy) vs reference 1
[7] = age 25 year vs reference 53 year, Figure 4
[8] = age 71 year vs reference 53 year, Figure 4
[9] = high-fat meal vs fasted, single dose 160 mg
[10] = single dose 160 mg, unaffected by food

## Cc1cc(Nc2ncc(Cl)c(Nc3ccccc3S(=O)(=O)C(C)C)n2)c2c(c1C1CCN(C)CC1)C[C@@H](C)O2 [SAF-189s]
[1]; 160 mg QD dose
  AUCss geometric mean: 2,374 ng∙h mL^–1
[1]; [3]
  AUC decrease: 21%
  CL/F increase: 27%
[1]; [4]
  AUC increase: 10%
  CL/F decrease: 8.8%
[1]; [5]
  AUCss(ug*h/L) Ratio: 1.18
  V/F(L) Ratio: 0.734
[1]; ALKPOT 5 (ROS1) vs reference 1
  AUCss(ug*h/L) Ratio: 1.06
  V/F(L) Ratio: 0.917
[1]; [6]
  AUCss(ug*h/L) Ratio: 0.979
  V/F(L) Ratio: 0.784
[1]; ALKPOT = 2, 3, 4 compared to ALKPOT = 1
  AUCss higher: 18%
[1]; ALKPOT = 2, 3, 4 relative to ALKPOT = 1
  V/F reduction: 26.6%
[1]; ALKPOT = 5 compared to ALKPOT = 1
  AUCss higher: 6%
[1]; ALKPOT = 5 relative to ALKPOT = 1
  V/F reduction: 8.3%
[1]; ALKPOT = 6 (healthy subjects) relative to ALKPOT = 1
  V/F reduction: 21.6%
[1]; ALKPOT = 6 compared to ALKPOT = 1
  AUCss lower: 2.1%
[1]; ALKPOT covariate
  effect of prior anticancer therapy on AUCss: less than 20%
[1]; after the first dose, typical subjects (median age 53 years, ALK+ without previous ALK inhibitor treatment)
  half-life: 34.6 h
[1]; [7]
  AUCss(ug*h/L) Ratio: 0.79
  CL/F(L/h) Ratio: 1.27
[1]; [8]
  AUCss(ug*h/L) Ratio: 1.1
  CL/F(L/h) Ratio: 0.912
[1]; exposure–safety analysis, all patients
  AUCss median value: 2,233 ng∙h mL^–1
[1]; final PopPK model estimate
  ALAG1 (tlag) typical value: 0.483 (±0.0306) h and 0.483 h
  CL1/F typical value: 64 (±1.51) L h^–1 and 64 L h^–1
  CL2/F typical value: 40.3 (±6.89) L h^–1 and 40.3 L h^–1
  KA typical value: 0.501 (±0.0444) h^−1
  V/F typical value: 5,210(±339) L and 5,210 L
[1]; final PopPK model estimate, Table 2
  KA typical value: 0.501 L h^–1
[1]; final model estimate
  Interindividual variability ω^2 ALAG1: 0.12
  Interindividual variability ω^2 CL: 0.138
  Interindividual variability ω^2 KA: 0.279
  Interindividual variability ω^2 V: 0.125
[1]; healthy subjects, final model estimate
  ALKPOT = 6 on V/F: 0.784
[1]; non-parametric bootstrap
  ALAG1 bootstrap estimate: 0.491 h
  ALKPOT = 2,3,4 on V/F bootstrap estimate: 0.724
  ALKPOT = 5 on V/F bootstrap estimate: 0.905
  ALKPOT = 6 on V/F bootstrap estimate: 0.782
  CL1/F bootstrap estimate: 64 L h^–1
  CL2/F bootstrap estimate: 40.5 L h^–1
  Interindividual variability ω^2 ALAG1 bootstrap estimate: 0.106
  Interindividual variability ω^2 CL bootstrap estimate: 0.138
  Interindividual variability ω^2 KA bootstrap estimate: 0.276
  Interindividual variability ω^2 V bootstrap estimate: 0.121
  KA bootstrap estimate: 0.504 L h^–1
  Kout bootstrap estimate: 1.35 day⁻¹
  V/F bootstrap estimate: 5,199 L
[1]; others (ROS1+ patients or unknown), final model estimate
  ALKPOT = 5 on V/F: 0.917
[1]; patients with previous ALK inhibitor treatment, final model estimate
  ALKPOT = 2,3,4 on V/F: 0.734
[1]; quartile 1, estimated using the most prevalent dose
  Cmin,ss: 18–60.7 ng mL^–1
[1]; quartile 2, estimated using the most prevalent dose
  Cmin,ss: 60.7–79 ng mL^–1
[1]; quartile 3, estimated using the most prevalent dose
  Cmin,ss: 79–108 ng mL^–1
[1]; quartile 4, estimated using the most prevalent dose
  Cmin,ss: 108–182 ng mL^–1
[1]; steady state after multiple administrations, typical subjects
  half-life: approximately 56.4 h
[1]; time-varying inhibition rate constant
  Kout: 1.35 (±0.421) day^−1
[1]; time-varying inhibition rate constant, Table 2
  Kout typical value: 1.35 day⁻¹
[2]; fasted
  intersubject variability AUC0-t: 33.8%
  intersubject variability AUC0-∞: 34.6%
  intersubject variability Cmax: 23.0%
[2]; fed
  intersubject variability AUC0-t: 31.3%
  intersubject variability AUC0-∞: 32.8%
  intersubject variability Cmax: 19.7%
[2]; [9]
  geometric mean ratio AUC0-t: 105.1%
  geometric mean ratio Cmax: 109.1%
[2]; [10]
  Tmax (median): 6 h
  t½ (mean): around 35 h
